# Results taken from PubChem BioAssay (NCI).
# Values joined by “and” are separate entries in the source; they are usually repeats but may differ in a detail not shown here. Equal entries are not always repeated.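 Compound exposure: 48 hours, 5 concentrations, 96-well plates. Here, GI50 denotes the concentration required for 50% inhibition of growth. The concentration for full growth arrest is given as TGI.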
# What was measured:
# Assay in all cases: growth of human tumour cells (NCI), 48 h
# SK-MEL-5 melanoma = tested on: SK-MEL-5 melanoma
# HCC-2998 colon = tested on: HCC-2998 colon
# U251 CNS = tested on: U251 CNS
# HT29 colon = tested on: HT29 colon
# MALME-3M melanoma = tested on: MALME-3M melanoma
# HCT-116 colon = tested on: HCT-116 colon
# CCRF-CEM leukemia = tested on: CCRF-CEM leukemia
# TK-10 renal = tested on: TK-10 renal
# T-47D breast = tested on: T-47D breast
# OVCAR-5 ovarian = tested on: OVCAR-5 ovarian
SMILES,TGI (SK-MEL-5 melanoma),TGI (HCC-2998 colon),TGI (U251 CNS),TGI (HT29 colon),TGI (MALME-3M melanoma),TGI (HCT-116 colon),TGI (CCRF-CEM leukemia) [µM],TGI (TK-10 renal),GI50 (SK-MEL-5 melanoma),GI50 (HCC-2998 colon),GI50 (U251 CNS),GI50 (HT29 colon),GI50 (T-47D breast) [µM],TGI (T-47D breast) [µM],GI50 (MALME-3M melanoma),GI50 (HCT-116 colon),GI50 (OVCAR-5 ovarian),TGI (OVCAR-5 ovarian) [µM],GI50 (TK-10 renal),GI50 (CCRF-CEM leukemia)
COc1ccccc1-c1cc(=O)c2cc3c(cc2[nH]1)OCO3,> 100 µM,> 100 µM,> 100 µM,> 100 µM,> 100 µM,> 100 µM,> 100,> 100 µM,,,,,,,,,,,,
CO/N=C(\C)c1ccc(Nc2cc(-c3ccccc3)nc3ccc(OC)cc23)cc1,3.31 µM,15.9 µM,4.79 µM,> 100 µM,4.85 µM,3.77 µM,,6.85 µM,1.77 µM,3.16 µM,2.05 µM,5.33 µM,33.7,> 100,1.78 µM,1.76 µM,5.2 µM,40.3,2.52 µM,
CC(=O)C1C(c2ccc(N(C)C)cc2)c2cc3c(cc2OC1(C)O)OCO3 (stereo unspecified),93 µM,,> 100 µM,58.5 µM,> 100 µM,> 100 µM,> 100,> 100 µM,,,,,,,,,,,,
O=[P+](O)c1ccsc1,> 100 µM,,> 100 µM,> 100 µM,,> 100 µM,> 100,> 100 µM,,,,,,,,,,,,
NCC1OC(n2cnc3c(N)ncnc32)CC1O (stereo unspecified),> 100 µM,,> 100 µM,> 100 µM,> 100 µM,> 100 µM,> 100,> 100 µM,,,,,,> 100,,,,> 100,,
COC(=O)c1cccn1C(=O)n1cccc1,> 100 µM,> 100 µM,> 100 µM,> 100 µM,> 100 µM,> 100 µM,> 100,> 100 µM,,,,,,,,,,> 100,,
Cc1cccc(C)c1NC(=O)C1C(=O)N(c2c(C)cccc2C)C(=O)/C1=N\N (stereo unspecified),> 100 µM,> 100 µM,> 100 µM,> 100 µM,> 100 µM,> 100 µM,> 100,> 100 µM,,,,,,,,,,> 100,,
C[n+]1c2cc(N)ccc2cc2ccc(N)cc21,2.57 µM [middle of 4 runs],3.43 µM [middle of 4 runs],4.22 µM [middle of 4 runs],2.72 µM and 13.3 µM and 3.15 µM,2.86 µM [middle of 4 runs],5.55 µM and 11.1 µM and 5.51 µM,,9.33 µM [middle of 4 runs],1.23 µM [middle of 4 runs],925 nM [middle of 4 runs],733 nM [middle of 4 runs],1 µM [middle of 4 runs],,,763 nM [middle of 4 runs],622 nM [middle of 4 runs],1.1 µM [middle of 4 runs],,1.43 µM [middle of 4 runs],2.1 µM [middle of 4 runs]
O=C(CCN1CCN(c2ccccc2)CC1)N1CCc2c([nH]c3ccccc23)C1c1cccnc1 (stereo unspecified),28.9 µM,36.1 µM,30 µM,29 µM,39.2 µM,28.1 µM,69.7,18.8 µM,,,,,,,,,,34.6,,
CC(C)(C)c1cc(-n2c(-c3ccc(Cl)cc3)nc3cc(C(=O)Nc4ccc(Cl)cc4)ccc32)n[nH]1,,,> 100 µM,> 100 µM,> 100 µM,> 100 µM,,> 100 µM,,,6.63 µM,> 100 µM,3.72,> 100,5.29 µM,3.84 µM,> 100 µM,> 100,3.66 µM,
CC(Nc1ccc(S(=O)(=O)N=C(N)N)cc1)c1c2ccccc2nc2ccccc12 (stereo unspecified),,82.7 µM,> 100 µM,> 100 µM,65.6 µM,> 10 µM,60.5,> 100 µM,,,,,,,,,,> 100,,
O=C(c1ccccc1)C(CN1CCCCC1)c1ccccc1 (stereo unspecified),6.74 µM,12.3 µM,3.24 µM,5.67 µM,3.35 µM,2.46 µM,2.34,10.2 µM,2.38 µM,3.97 µM,1.48 µM,0.892 µM,,,1.44 µM,1.13 µM,2.67 µM,5.43,2.92 µM,0.301 µM
CSc1nc(NC2OC(COC(C)=O)C(OC(C)=O)C(OC(C)=O)C2OC(C)=O)c2c(n1)OCC2=O (stereo unspecified),> 100 µM,,> 100 µM,> 100 µM,> 100 µM,> 100 µM,> 100,> 100 µM,,,,,,,,,,> 100,,
Nc1nnnn1CCO,> 100 µM,,> 100 µM,> 100 µM,> 100 µM,> 100 µM,,> 100 µM,,,,,,> 100,,,,> 100,,
NC(=O)/N=C1/CCC2C3CCCC2C13,> 100 µM,> 100 µM,> 100 µM,> 100 µM,,> 100 µM,> 100,> 100 µM,,,,,,,,,,> 100,,
Cc1ccc(NC(=O)CC2Sc3ccccc3NC2=O)c(C)c1 (stereo unspecified),30.9 µM,27.3 µM,33.1 µM,,47.7 µM,22 µM,78.4,50.9 µM,,,,,,,,,,73,,
Cc1cc(Cc2cc(C)c(NC(=O)C(=O)C3CCC4=C(SC5C=CC=CC5N4)C3=O)c(C(C)C)c2)cc(C(C)C)c1NC(=O)C(=O)C1CCC2=C(SC3C=CC=CC3N2)C1=O (stereo unspecified),> 100 µM,> 100 µM,> 100 µM,> 100 µM,,> 100 µM,> 100,> 100 µM,,,,,,> 100,,,,> 100,,
O=C(O)CCC(N=Cc1nc(-c2ccccc2)oc1O)C(=O)O (stereo unspecified),> 100 µM,> 100 µM,> 100 µM,> 100 µM,> 100 µM,> 100 µM,> 100,> 100 µM,,,,,,,,,,> 100,,
COC(=O)C(C(=O)C(=O)Nc1ccc([N+](=O)[O-])cc1[N+](=O)[O-])c1nc2ccc(Cl)cc2[nH]c1=O (stereo unspecified),> 100 µM,> 100 µM,,> 100 µM,> 100 µM,> 100 µM,> 100,> 100 µM,,,,,,,,,,> 100,,
CCOC(=O)N1CCC(=O)C(CNC23CC4CC(CC(C4)C2)C3)C1 (stereo unspecified),> 100 µM,,> 100 µM,43.7 µM,37.7 µM,,35.9,> 100 µM,,,,,,,,,,> 100,,
